We go through 18 molecules from patent publication US20260327191A1, “GSK3a INHIBITORS AND METHODS OF USE THEREOF” (Blueprint Medicines Corporation, priority 2023, published 2026).

Molecules are shown by their SMILES. Structures can show the parent of a compound that is named as a salt. Where two headings read alike, the source gives them in different places.

One assay has as its target T1, human GSK3α (Homo sapiens, UniProt P49840).
T1 construct: Full length human GSK3α or GSK3B expressed as N-terminal GST fusion proteins; GST (N); purchased Carna Biosciences (Japan); host or cells: baculovirus host
The assay can be described thus: In vitro enzymatic activity assay, GSK3α. Conditions: 1.0 mM ATP, 1.0 μM peptide substrate, 120 min, 25° C. Format: biochemical.

The target of assay [1] is T2, GSK3B (Homo sapiens, UniProt P49841). Briefly: In vitro enzymatic activity assay, GSK3β. Format: biochemical. More on the design: Full length human GSK3α or GSK3B expressed as N-terminal GST fusion proteins; GST (N); purchased Carna Biosciences (Japan); host or cells: baculovirus host. Conditions: 1.0 mM ATP, 1.0 μM peptide substrate, 120 min, 25° C.
Assay [2] concerns the target T2, GSK3B. The assay can be described thus: NanoBRET cellular target engagement assay, Nanoluc-GSK3B in HEK293 cells. Conditions: NanoBRET GSK3β IC50, HEK293 cells, tracer K-8, 2 hours, 37° C. On the set-up: expressed in transfected cells. Format: cell-based. (In general: BRET reads energy transfer from a luciferase to a nearby fluorophore.)
In the next assay the target is T3, GSK3A (Homo sapiens, UniProt P49840).
T3 construct: expressed in transfected cells
The assay can be described thus: NanoBRET cellular target engagement assay, Nanoluc-GSK3A in HEK293 cells. Conditions: NanoBRET GSK3α IC50, HEK293 cells, tracer K-8, 2 hours, 37° C. In kind it is cell-based.

T2 sequence (P49841 whole entry, the tested form may be a part): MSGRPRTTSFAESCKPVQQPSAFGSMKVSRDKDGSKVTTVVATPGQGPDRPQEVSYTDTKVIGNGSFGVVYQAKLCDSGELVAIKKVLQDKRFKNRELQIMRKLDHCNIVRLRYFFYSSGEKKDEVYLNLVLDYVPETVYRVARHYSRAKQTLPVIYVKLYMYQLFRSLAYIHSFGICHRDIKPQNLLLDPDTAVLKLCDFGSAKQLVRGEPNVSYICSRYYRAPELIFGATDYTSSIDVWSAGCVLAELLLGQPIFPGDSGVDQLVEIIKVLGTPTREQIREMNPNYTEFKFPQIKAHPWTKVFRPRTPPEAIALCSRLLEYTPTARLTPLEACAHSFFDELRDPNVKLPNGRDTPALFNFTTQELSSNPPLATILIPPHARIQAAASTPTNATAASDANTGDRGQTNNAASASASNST
T3 sequence (P49840 whole entry): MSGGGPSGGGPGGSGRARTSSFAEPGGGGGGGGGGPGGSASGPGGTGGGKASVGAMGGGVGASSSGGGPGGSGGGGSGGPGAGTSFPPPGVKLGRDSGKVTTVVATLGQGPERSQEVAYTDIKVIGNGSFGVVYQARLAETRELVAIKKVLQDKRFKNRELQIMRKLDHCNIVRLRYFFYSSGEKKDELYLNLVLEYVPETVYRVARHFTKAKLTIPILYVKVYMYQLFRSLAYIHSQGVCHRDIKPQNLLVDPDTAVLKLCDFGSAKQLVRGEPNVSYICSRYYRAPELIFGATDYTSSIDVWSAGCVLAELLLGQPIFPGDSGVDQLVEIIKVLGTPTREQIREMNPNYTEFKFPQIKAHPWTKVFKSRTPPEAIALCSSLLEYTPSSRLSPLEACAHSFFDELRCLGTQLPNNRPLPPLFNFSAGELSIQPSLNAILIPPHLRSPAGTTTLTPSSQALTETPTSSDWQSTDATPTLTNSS
T1 sequence (P49840 whole entry, the tested form may be a part): as the sequence (P49840 whole entry) above

`Cc1cccc(Cl)c1-n1cnc(N)c(C(=O)Nc2cccc([C@@H]3CCCN3)c2F)c1=O` (single isomer, unassigned) [Example 217, (S)-4-amino-1-((S)-2-chloro-6-methylphenyl)-N-(2-fluoro-3-(pyrrolidin-2-yl)phenyl)-6-oxo-1,6-dihydropyrimidine-5-carboxamide or (R)-4-amino-1-((S)-2-chloro-6-methylphenyl)-N-(2-fluoro-3-(pyrrolidin-2-yl)phenyl)-6-oxo-1,6-dihydropyrimidine-5-carboxamide]: the IC50 – broadly, the midpoint of a concentration-inhibition curve – on human GSK3α (read-out: Enzyme GSK3α (IC50)) was 7.8 nM; on GSK3B [1] (read-out: Enzyme GSK3β (IC50)), 305 nM; at GSK3B [2], 424 nM; at GSK3A, 8 nM.
For `CCc1cc(C)c(-n2cnc(N)c(C(=O)Nc3cncc([C@@H](C)N)c3)c2=O)c(C)c1` (single isomer, unassigned) [Example 218, (R)-4-amino-N-(5-(1-aminoethyl)pyridin-3-yl)-1-(4-ethyl-2,6-dimethylphenyl)-6-oxo-1,6-dihydropyrimidine-5-carboxamide or (S)-4-amino-N-(5-(1-aminoethyl)pyridin-3-yl)-1-(4-ethyl-2,6-dimethylphenyl)-6-oxo-1,6-dihydropyrimidine-5-carboxamide] the same measures were 10.8 nM, 421 nM, 401 nM and 5.6 nM.
For `CCOc1cc(Cl)c(-n2cnc(N)c(C(=O)Nc3cncc([C@@H](C)N)n3)c2=O)c(Cl)c1` (single isomer, unassigned) [Example 219, (R)-4-amino-N-(6-(1-aminoethyl)pyrazin-2-yl)-1-(2,6-dichloro-4-ethoxyphenyl)-6-oxo-1,6-dihydropyrimidine-5-carboxamide or (S)-4-amino-N-(6-(1-aminoethyl)pyrazin-2-yl)-1-(2,6-dichloro-4-ethoxyphenyl)-6-oxo-1,6-dihydropyrimidine-5-carboxamide] the same measures were 5.4 nM, 271 nM, 187 nM and 3.8 nM.
For `COc1cc(Cl)c(-n2cnc(N)c(C(=O)Nc3cc(F)cc([C@H]4CCCCN4)c3)c2=O)c(Cl)c1` (single isomer, unassigned) [Example 222, (R)-4-amino-1-(2,6-dichloro-4-methoxyphenyl)-N-(3-fluoro-5-(piperidin-2-yl)phenyl)-6-oxo-1,6-dihydropyrimidine-5-carboxamide or (S)-4-amino-1-(2,6-dichloro-4-methoxyphenyl)-N-(3-fluoro-5-(piperidin-2-yl)phenyl)-6-oxo-1,6-dihydropyrimidine-5-carboxamide] the same measures were 2.1 nM, 99.2 nM, 148 nM and 4.6 nM.
Consider `CCNCc1cncc(NC(=O)c2c(N)ncn(-c3c(Cl)cccc3Cl)c2=O)c1` [Example 5, 4-amino-1-(2,6-dichlorophenyl)-N-(5-((ethylamino)methyl)pyridin-3-yl)-6-oxo-1,6-dihydropyrimidine-5-carboxamide], for which the IC50 on human GSK3α (read-out: Enzyme GSK3α (IC50)) was determined as 8.3 nM; on GSK3B [1] (read-out: Enzyme GSK3β (IC50)), 378 nM; on GSK3B [2] it was 383 nM; at GSK3A, 6.2 nM.
On to `CN[C@H](C)c1cc(F)cc(NC(=O)c2c(N)ncn(-c3c(Cl)cccc3Cl)c2=O)c1` [Example 6, (R)-4-amino-1-(2,6-dichlorophenyl)-N-(3-fluoro-5-(1-(methylamino)ethyl)phenyl)-6-oxo-1,6-dihydropyrimidine-5-carboxamide trifluoroacetate], for which the IC50 at human GSK3α (read-out: Enzyme GSK3α (IC50)) is 7.2 nM; at GSK3B [1] (read-out: Enzyme GSK3β (IC50)), 292 nM; against GSK3B [2], 352 nM; on GSK3A, 6.5 nM.
The matching figures for `CCNCc1cncc(NC(=O)c2c(N)ncn(-c3c(Cl)cc(OC(F)F)cc3Cl)c2=O)c1` [Example 10, 4-amino-1-(2,6-dichloro-4-(difluoromethoxy)phenyl)-N-(5-((ethylamino)methyl)pyridin-3-yl)-6-oxo-1,6-dihydropyrimidine-5-carboxamide]: 8.8 nM, 395 nM, 371 nM and 6.9 nM.
The matching figures for `CCNCc1cncc(NC(=O)c2c(N)ncn(-c3c(Cl)cc(C(F)F)cc3Cl)c2=O)c1` [Example 14, 4-amino-1-(2,6-dichloro-4-(difluoromethyl)phenyl)-N-(5-((ethylamino)methyl)pyridin-3-yl)-6-oxo-1,6-dihydropyrimidine-5-carboxamide]: 6.4 nM, 318 nM, 231 nM and 4 nM.
For the molecule `COCc1cc(Cl)c(-n2cnc(N)c(C(=O)Nc3cncc(C(C)(C)N)c3)c2=O)c(Cl)c1` [Example 15, 4-amino-N-(5-(2-aminopropan-2-yl)pyridin-3-yl)-1-(2,6-dichloro-4-(methoxymethyl)phenyl)-6-oxo-1,6-dihydropyrimidine-5-carboxamide], the IC50 stood at 4.5 nM at human GSK3α (read-out: Enzyme GSK3α (IC50)), 208 nM on GSK3B [1] (read-out: Enzyme GSK3β (IC50)), 119 nM against GSK3B [2] and 2.2 nM at GSK3A.
For `CCNCc1cncc(NC(=O)c2c(N)ncn(-c3c(Cl)cc(OC)cc3Cl)c2=O)c1` [Example 17, 4-amino-1-(2,6-dichloro-4-methoxyphenyl)-N-(5-((ethylamino)methyl)pyridin-3-yl)-6-oxo-1,6-dihydropyrimidine-5-carboxamide] the same measures were 7.8 nM, 340 nM, 271 nM and 3.8 nM.
In the case of `COc1cc(Cl)c(-n2cnc(N)c(C(=O)Nc3cncc(CNC(C)C)c3)c2=O)c(Cl)c1` [Example 20, 4-amino-1-(2,6-dichloro-4-methoxyphenyl)-N-(5-((isopropylamino)methyl)pyridin-3-yl)-6-oxo-1,6-dihydropyrimidine-5-carboxamide], the IC50 on human GSK3α (read-out: Enzyme GSK3α (IC50)) was found to be 14 nM; on GSK3B [1] (read-out: Enzyme GSK3β (IC50)), 685 nM; on GSK3B [2] it was 396 nM; against GSK3A it was 7.2 nM.
As for `COc1cc(Cl)c(-n2cnc(N)c(C(=O)Nc3cncc(C4(N)CCCC4)c3)c2=O)c(Cl)c1` [Example 21, 4-amino-N-(5-(1-aminocyclopentyl)pyridin-3-yl)-1-(2,6-dichloro-4-methoxyphenyl)-6-oxo-1,6-dihydropyrimidine-5-carboxamide], the IC50 amounted to 3.2 nM at human GSK3α (read-out: Enzyme GSK3α (IC50)), 217 nM on GSK3B [1] (read-out: Enzyme GSK3β (IC50)), 145 nM against GSK3B [2] and 2.6 nM at GSK3A.
The matching figures for `CCNCc1cncc(NC(=O)c2c(N)ncn(-c3c(Cl)cc(C(F)(F)F)cc3Cl)c2=O)c1` [Example 22, 4-amino-1-(2,6-dichloro-4-(trifluoromethyl)phenyl)-N-(5-((ethylamino)methyl)pyridin-3-yl)-6-oxo-1,6-dihydropyrimidine-5-carboxamide]: 8.4 nM, 389 nM, 334 nM and 5.6 nM.
The matching figures for `Nc1ncn(-c2c(Cl)cc(C(F)(F)F)cc2Cl)c(=O)c1C(=O)Nc1cncc(CNCCO)c1` [Example 23, 4-amino-1-(2,6-dichloro-4-(trifluoromethyl)phenyl)-N-(5-(((2-hydroxyethyl)amino)methyl)pyridin-3-yl)-6-oxo-1,6-dihydropyrimidine-5-carboxamide]: 5 nM, 343 nM, 239 nM and 4.3 nM.
With `CCOc1cc(Cl)c(-n2cnc(N)c(C(=O)Nc3cncc(CNCCOC)c3)c2=O)c(Cl)c1` [Example 25, 4-amino-1-(2,6-dichloro-4-ethoxyphenyl)-N-(5-(((2-methoxyethyl)amino)methyl)pyridin-3-yl)-6-oxo-1,6-dihydropyrimidine-5-carboxamide], the IC50 at human GSK3α (read-out: Enzyme GSK3α (IC50)) stood at 13.9 nM; at GSK3B [1] (read-out: Enzyme GSK3β (IC50)), 692 nM; at GSK3B [2] it was 715 nM; against GSK3A it was 7.5 nM.
Turning to `CCOc1cc(Cl)c(-n2cnc(N)c(C(=O)Nc3cncc(CNCCO)c3)c2=O)c(Cl)c1` [Example 26, 4-amino-1-(2,6-dichloro-4-ethoxyphenyl)-N-(5-(((2-hydroxyethyl)amino)methyl)pyridin-3-yl)-6-oxo-1,6-dihydropyrimidine-5-carboxamide], the IC50 on human GSK3α (read-out: Enzyme GSK3α (IC50)) is 5.5 nM; at GSK3B [1] (read-out: Enzyme GSK3β (IC50)), 327 nM; on GSK3B [2] it was 269 nM; on GSK3A, 4.4 nM.
For `CCOc1cc(Cl)c(-n2cnc(N)c(C(=O)Nc3cnnc(C(N)=O)c3)c2=O)c(Cl)c1` [Example 28, 5-(4-amino-1-(2,6-dichloro-4-ethoxyphenyl)-6-oxo-1,6-dihydropyrimidine-5-carboxamido)pyridazine-3-carboxamide], the IC50 at human GSK3α (read-out: Enzyme GSK3α (IC50)) was found to be 9.6 nM; on GSK3B [1] (read-out: Enzyme GSK3β (IC50)), 320 nM; against GSK3B [2], 699 nM; against GSK3A it was 9 nM.
On to `CCOc1cc(C)c(-n2cnc(N)c(C(=O)Nc3cnnc(C(N)=O)c3)c2=O)c(C)c1` [Example 29, 5-(4-amino-1-(4-ethoxy-2,6-dimethylphenyl)-6-oxo-1,6-dihydropyrimidine-5-carboxamido)pyridazine-3-carboxamide], for which the IC50 at human GSK3α (Enzyme GSK3α (IC50)) came out at 92.2 nM; against GSK3B [1] (Enzyme GSK3β (IC50)), 3800 nM; against GSK3B [2] it was 25000 nM; on GSK3A, 79.2 nM.
